Assay results from ChEMBL document CHEMBL4725334, “Discovery of novel integrase-LEDGF/p75 allosteric inhibitors based on a benzene scaffold” (Bioorg Med Chem, 2020).

Tests used:
[1] = Cytotoxicity against human MT4 cells assessed as reduction in cell viability measured after 4 days by MTT assay; format: cell-based; conditions: time 4 day
[2] = Binding affinity to LEDGF/p75 binding pocket of integrase in HIV-1 NL432 infected in human MT4 cells assessed as allosteric inhibition of IN-LEDGF/p75 interaction by measuring inhibition of virus-induced cytopathicity measured after 4 days by MTT assay; format: cell-based; conditions: Human immunodeficiency virus 1, NL432, MT4, 96 h
[3] = Metabolic stability in human liver microsomes assessed as parent compound remaining at 0.5 uM incubated for 30 mins by LC-MS/MS analysis; format: ADME, Microsome; conditions: read-out: Stabilty
[4] = Metabolic stability in rat liver microsomes assessed as parent compound remaining at 0.5 uM incubated for 30 mins by LC-MS/MS analysi; format: ADME, Microsome; conditions: read-out: Stabilty
[5] = Total clearance in Sprague-Dawley rat at 0.5 mg/kg, iv and 1 mg/kg, po administered as cassette dosing measured for 24 hrs by LC-MS/MS analysis; format: ADME, organism-based; conditions: in vivo
[6] = AUC in Sprague-Dawley rat at 0.5 mg/kg, iv measured for 24 hrs by LC-MS/MS analysis; format: ADME, organism-based; design: dose 0.5 mg/kg, time 24 hrs; conditions: in vivo
[7] = Half-life in Sprague-Dawley rat at 0.5 mg/kg, iv and 1 mg/kg, po administered as cassette dosing measured for 24 hrs by LC-MS/MS analysis; format: ADME, organism-based; conditions: in vivo
[8] = Oral bioavailability in Sprague-Dawley rat 1 mg/kg administered as cassette dosing measured for 24 hrs by LC-MS/MS analysis; format: ADME, organism-based; conditions: in vivo

SMILES | CC50 at 96 h [1] | EC50 [2] | further results
Cc1ccc(-c2c(C)c(-c3ccc(C)c(C)c3)c(C(OC(C)(C)C)C(=O)O)c(C)c2NC(=O)c2ccccc2)cc1C (centres undefined) | 9.1 µM | 0.051 µM | –
CC(=O)Nc1c(C)c(C(OC(C)(C)C)C(=O)O)c(-c2ccc(C)c(C)c2)c(C)c1-c1ccc(C)c(C)c1 (centres undefined) | 19 µM | 0.019 µM | –
CNC(=O)Nc1c(C)c(C(OC(C)(C)C)C(=O)O)c(-c2ccc(C)c(C)c2)c(C)c1-c1ccc(C)c(C)c1 (centres undefined) | 20 µM | 0.077 µM | –
Cc1ccc(-c2c(C)c(-c3ccc(C)c(C)c3)c(C(OC(C)(C)C)C(=O)O)c(C)c2NC(=O)Nc2ccccc2)cc1C (centres undefined) | 8 µM | 0.029 µM | –
Cc1ccc(-c2c(C)c(-c3ccc(C)c(C)c3)c(C(OC(C)(C)C)C(=O)O)c(C)c2NS(=O)(=O)c2ccccc2)cc1C (centres undefined) | 11 µM | 0.033 µM | –
Cc1ccc(-c2c(C)c(-c3ccc4c(c3)CCO4)c(C(OC(C)(C)C)C(=O)O)c(C)c2NS(C)(=O)=O)cc1C (centres undefined) | 38 µM | 0.035 µM | –
Cc1ccc(-c2c(C)c(-c3ccc(C)c(C)c3)c(C(OC(C)(C)C)C(=O)O)c(C)c2N)cc1C (centres undefined) | 12 µM | 0.027 µM | –
Cc1ccc(-c2c(C)c(-c3ccccc3)c(C(OC(C)(C)C)C(=O)O)c(C)c2NS(C)(=O)=O)cc1C (centres undefined) | > 50 µM | 0.034 µM | –
CNc1c(C)c(C(OC(C)(C)C)C(=O)O)c(-c2ccc(C)c(C)c2)c(C)c1-c1ccc(C)c(C)c1 (centres undefined) | 8.8 µM | 0.031 µM | –
Cc1ccc(-c2c(C)c(-c3ccc4c(c3)NCCO4)c(C(OC(C)(C)C)C(=O)O)c(C)c2NS(C)(=O)=O)cc1C (centres undefined) | 42 µM | 0.33 µM | –
Cc1ccc(-c2c(C)c(-c3ccc4c(c3C)CCCO4)c(C(OC(C)(C)C)C(=O)O)c(C)c2NS(C)(=O)=O)cc1C (centres undefined) | 24 µM | 0.0039 µM | remaining at 0.5 h, 0.5 µM [3]: 59%; remaining at 0.5 h, 0.5 µM [4]: 61%; clearance [5]: 6.99 mL/min/kg; AUC at 24 h [6]: 1190 ng·h/mL; half-life [7]: 3.1 h; bioavailability [8]: 36%
Cc1ccc(-c2c(C)c(-c3ccc(Cl)cc3)c(C(OC(C)(C)C)C(=O)O)c(C)c2NS(C)(=O)=O)cc1C (centres undefined) | 26 µM | 0.011 µM | –
Cc1ccc(-c2c(C)c(-c3ccc4c(c3)CCCO4)c(C(OC(C)(C)C)C(=O)O)c(C)c2NS(C)(=O)=O)cc1C (centres undefined) | 28 µM | 0.022 µM | –
CCNC(=O)Nc1c(C)c(C(OC(C)(C)C)C(=O)O)c(-c2ccc(C)c(C)c2)c(C)c1-c1ccc(C)c(C)c1 (centres undefined) | 15 µM | 0.037 µM | –
Cc1ccc(-c2c(C)c(-c3ccc(Cl)c(F)c3)c(C(OC(C)(C)C)C(=O)O)c(C)c2NS(C)(=O)=O)cc1C (centres undefined) | 22 µM | 0.026 µM | –
Cc1ccc(-c2c(C)c(-c3ccc(C)c(C)c3)c(C(OC(C)(C)C)C(=O)O)c(C)c2NS(=O)(=O)C2CC2)cc1C (centres undefined) | 11 µM | 0.029 µM | –
Cc1ccc(-c2c(C)c(-c3ccc(C)c(C)c3)c(C(OC(C)(C)C)C(=O)O)c(C)c2NS(C)(=O)=O)cc1C (centres undefined) | 15 µM | 0.011 µM | –
CCC(=O)Nc1c(C)c(C(OC(C)(C)C)C(=O)O)c(-c2ccc(C)c(C)c2)c(C)c1-c1ccc(C)c(C)c1 (centres undefined) | 15 µM | 0.019 µM | –
Cc1ccc(-c2c(C)c(-c3ccc(C)c(C)c3)c(C(OC(C)(C)C)C(=O)O)c(C)c2NCc2ccccc2)cc1C (centres undefined) | 4 µM | 0.48 µM | –
Cc1ccc(-c2c(C)c(-c3ccc4c(c3)N(C)CCO4)c(C(OC(C)(C)C)C(=O)O)c(C)c2NS(C)(=O)=O)cc1C (centres undefined) | 31 µM | 0.031 µM | –
Cc1nc2ccccc2c(-c2ccc3c4c(ccnc24)CCO3)c1[C@H](OC(C)(C)C)C(=O)O [BI-224436] | > 50 µM | 0.056 µM | remaining at 0.5 h, 0.5 µM [3]: 98%; remaining at 0.5 h, 0.5 µM [4]: 100%; clearance [5]: 1.09 mL/min/kg; AUC at 24 h [6]: 7680 ng·h/mL; half-life [7]: 4.2 h; bioavailability [8]: 64%
